Experimental data published in patent US6436975B1, “Pharmaceutical compositions for ulcer” (Nicox S.A., priority 2000, dated 2002).

Columns and labels:
[1] = test system: Washed human platelets; assay: Nitric oxide generation by chemiluminiscence, platelets; type: cell-based; conditions: incubation of 100 μM NO-donor, 5 minutes
Procedure: (§1) Specifically the test relates to the nitric oxide generation from the NO-donors described in the present invention, among which, for instance nitroglicerin, nicorandyl, nitroprussiate, etc., when they are put in the presence of endothelial cells (method a) or platelets (method b)
Washed human platelets, prepared analogously with what described by Radomski et al, (Br.J. Pharmacol. 92, 639-1987), were used. 0.4 ml alicuots were incubated with scalar NO-donor concentrations (1-100 μg/ml) for 5 minutes. The incubation medium (e.g. Tyrode) was then analyzed to determine the capability to generate NO, by determination of nitric oxide bv chemiluminiscence and CGMP, with the modalities described in the previous paragraph, for the analyses carried out on the endothelial cells. As to the determination by chemiluminiscence, also in this case, on the basis of a calibration curve, prepared with scalar nitrite concentrations, it was possible to quantitatively determine the generated NO concentration. For example, after incubation of 100 μM of nicorandyl, an amount equal to 35 μM of NO was generated.

[2] = test system: Cells of the human umbilical vein; assay: Nitric oxide generation by chemiluminiscence, endothelial cells; type: cell-based; conditions: incubation of 100 μM NO-donor, 5 minutes
Procedure: as §1
The incubation medium (physiologic solvent, for example Tyrode) has been then analyzed to determine the capability to generate NO, by:
1) the nitric oxide disclosure by chemiluminiscence;
As regards the chemiluminiscence analysis, an amount equivalent to 100 ul was injected in the reaction chamber of a chemiluminiscence analyzer containing glacial acetic acid and potassium iodide. Nitrites/nitrates present in the medium under these conditions are converted into NO which is then determined after its reaction with ozone, with consequent light generation. As it usually occurs in the devices measuring the chemiluminiscence, the produced luminiscence is directly proportional to the generated NO levels and can be measured by the suitable photomultiplier unit of a chemiluminiscence analyzer.
The photomultiplier converts the incident light into electric voltage, which is then quantitatively recorded. On the basis of a calibration curve, prepared with scalar nitrite concentrations, it was possible to quantitatively determine the generated NO concentration. […]

[3] = test system: rats; assay: Anti-ulcer activity, gastric lesions by absolute ethanol; type: in vivo; conditions: oral, 15 minutes before absolute ethanol (1 ml), evaluated one hour later; cimetidine 50 mg/Kg, composition 70 mg/Kg

SMILES | generated NO concentration [1] [µM] | generated NO concentration [2] | Gastric Damage [3] [%]
O=C(NCCO[N+](=O)[O-])c1cccnc1 [nicorandyl, N-[2-(nitroxy)ethyl]-3-pyridine-carboxamide] | 35 | about 10 μM | –
CN/C(=N/CCSCc1nc[nH]c1C)NC#N [Cimetidine] | – | – | 100
